This note sets out measurements from patent US20190124918A1, “BIOFILM FORMATION INHIBITOR AND BIOFILM FORMATION INHIBITING COMPOSITION” (KAO CORPORATION, priority 2016, published 2019).

Data set [1] deals with Pseudomonas PAO1 strain (ATCC 15692). As to the kind of experiment: Growth of test microbe (turbidity OD600), 96-well microplate culture. It counts as cell-based. Particulars: Pseudomonas. The protocol: Pseudomonas PAO1 strain (ATCC 15692) was subjected to stationary culture performed in LB culture medium (Lysogeny Broth; manufactured by Becton Dickinson) at 37° C. for 24 hours. The turbidity (OD600) of the culture solution was measured. The culture solution was diluted with Mueller Hinton Broth (BBL made) to prepare a suspension (15 mL) having a turbidity (OD600) of 1/10^6.
To each of the wells of a 96-well microplate (351172; manufactured by Japan Becton Dickinson), 6 μL of DMSO (Tokyo Chemical Industry Co. Ltd) and an ethanol solution (1 μL, 3 μL or 5 μL) of a test compound were added. After that, the microplate was allowed to stand still at room temperature for 5 hours to evaporate ethanol. The suspension of Pseudomonas microbe prepared in the above step 1) was added in an amount of 145 μL per well and culture was initiated. As the test compound, 2-methylhydroquinone (Sigma Aldrich) and p-toluquinone (Tokyo Kasei) were used. As a reference compound, sodium hypochlorite (manufactured by Wako Pure Chemical Industries Ltd.) was used. As a control, an ethanol solvent (EtOH control) alone was used. The concentration of the test compound in the ethanol solution is 1,000 ppm or 10,000 ppm and the final concentration of the test compound in the culture solution was about from 7 to 333 ppm.
After the 96-well microplate was subjected to stationary culture performed at 30° C. for 24 hours, turbidity (OD600) was measured to check growth. Subsequently, individual wells were stained with 0.1% crystal violet and thoroughly washed twice with physiological saline. To each well, 200 μL of ethanol was added and the absorbance (OD570) was measured to obtain the amount of the biofilm formed.
Compounds listed in Table 3 were each added to a test microbe and culture was conducted by the same procedure as in Test Example 1 and the amount of growth (OD600) and the amount of biofilm formed (OD570) were measured. For compounds a, b, c, f, h, i, J and k, 20 mM ethanol solutions were prepared; whereas for compounds d, e, g, 5 mM ethanol solutions were prepared. The solutions were each added to a 96-well microplate in an amount of 1 to 8 μL and evaluation was made. The final concentrations of the individual compounds are described in Table 3.
(§1) Growth inhibition rates relative to the control (ethanol alone) were calculated based on OD600 values measured and in accordance with the following expression. In addition, biofilm (BF) formation inhibition rates relative to the control (ethanol alone) were calculated based on OD570 values and in accordance with the following expression:
Growth inhibition (%)=(1−(compound addition group OD600/control group OD600))×100
(§2) As a control, an ethanol solvent alone was used (EtOH control). The concentrations of test compounds in the ethanol solution were as follows: test compound 1: 20 mM, test compounds 2 to 7: 100 mM. To each of the wells of a 96-well microplate (351172; manufactured by Japan Becton Dickinson), 6 μL of DMSO (Tokyo Kasei) and an ethanol solution of each test compound (1 to 8 μL) were added and then the microplates were allowed to stand still at room temperature for 5 hours to evaporate ethanol. A suspension solution of a Pseudomonas microbe prepared in the same procedure as in Test Example 1, 1) was added in an amount of 145 μL per well and culture was initiated.
(§3) After the 96-well microplate was subjected to stationary culture at 30° C. for 24 hours, turbidity (OD600) was measured to check growth. Subsequently, individual wells were stained with 0.1% crystal violet and thoroughly washed twice with physiological saline. To each well, 200 μL of ethanol was added and the absorbance (OD570) was measured to obtain the amount of the biofilm formed. The growth inhibition rate and biofilm (BF) formation inhibition rate were calculated based on OD600 and OD570 values measured and in accordance with the expressions used in Test Example 2.

Data set [2] shares this test system. As to the kind of experiment: Amount of biofilm formed (crystal violet, OD570), 96-well microplate culture. It counts as cell-based. Conditions: Pseudomonas, read-out: BF inhibition (%). Here is the method: Pseudomonas PAO1 strain (ATCC 15692) was subjected to stationary culture performed in LB culture medium (Lysogeny Broth; manufactured by Becton Dickinson) at 37° C. for 24 hours. The turbidity (OD600) of the culture solution was measured. The culture solution was diluted with Mueller Hinton Broth (BBL made) to prepare a suspension (15 mL) having a turbidity (OD600) of 1/10^6. […]
as §1
BF inhibition (%)={1−(compound addition group OD570/control group OD570)}×100
as §2, §3

In data set [3] the test system is cooling water taken from a water cooling tower. Nature of the data set: Aqueous system model (annular reactor): amount of biofilm formed on test pieces (OD570). It is filed as cell-based. Conditions: Test Example 5; same procedure as Test Example 4; solvent control finally beyond 1.0. The protocol: (§4) Biofilm formation inhibitory activity of p-toluquinone (Tokyo Kasei) was evaluated by an aqueous system model using an annular reactor (Art Science Co., Ltd.) having a 100 mL-volume culture tank. In the culture tank of the annular reactor, a cylindrical rotating body rotating at a speed of 160 rounds per minute was installed. To the rotating body, 12 test pieces were attached in advance. These test pieces were taken out at predetermined time intervals and biofilm formed on the test pieces was quantified. From a water cooling tower provided on a building rooftop and actually used, cooling water was taken and supplied to the annular reactor culture vessel (maintained at 30° C.) at a flow rate of 10 mL per minute; at the same time, an ethanol solution (15 g/L) of p-toluquinone was separately supplied to the annular reactor culture vessel by a syringe pump YSP-201 (manufactured by YMC) at a flow rate of 10 μL per minute (p-toluquinone concentration in cooling water in the culture tank was 15 ppm). The test pieces (n=2) taken out from the culture tank at predetermined time intervals were stained with 0.1% crystal violet, thoroughly washed twice with physiological saline and recovered in ethanol (15 mL). The absorbance (OD570) was measured to obtain the amount of the biofilm formed. […] Thereafter, the number of bacteria cells was measured. […]

For data set [4] the test system is unchanged. As to the kind of experiment: Aqueous system model (annular reactor): number of bacterial cells in water at inlet and outlet (R2A agar). It counts as cell-based. Conditions: Test Example 5; same procedure as Test Example 4; solvent control also about 10^4. The protocol: as §4
Data set [5] is described as follows: Dissolution in solvent (MDG) when preparing compositions. It counts as physicochemical. Particulars: preparation of compositions. Here is the method:
Predetermined amounts of p-toluquinone and HEDP were weighed and solvent (MDG) was added to prepare a composition. Since citric acid and EDTA were not dissolved in MDG, they were directly added in culture solutions; at the same time, p-toluquinone was directly added to the culture solutions.

In data set [6] the test system is biofilm-forming microbe isolated from cooling water taken from a water cooling tower. As to the kind of experiment: Biofilm inhibition test, quinone-based compound and organic solvent (OD570). Conditions: for OD570: alone or added as test solution in Diacetone alcohol, no addition gave 2.15. It counts as cell-based. Here is the method: A biofilm-forming microbe (microbe providing a OD570 value of 0.3 or more in the test for determining the amount of biofilm in the following section 4-3) isolated from cooling water taken from a water cooling tower was cultured in R2A culture medium at 30° C. for 16 hours while shaking. The turbidity (OD600) of the resultant culture solution was measured. The culture solution was diluted with R2A culture medium to prepare a suspension of 10^3 cfu/mL.
The suspension of a test microbe prepared in the above section 4-1) was added in individual wells of a 96 well microplate in an amount of 150 μL. Thereafter, the test solution prepared in the above section 2) was add and culture was initiated.
The 96 well microplate was subjected to stationary culture performed at 30° C. for 48 hours. The culture solution was removed and the resultant microplate was washed with water. Subsequently, each well was stained with 0.1% crystal violet and 200 μL of ethanol was added. The absorbance (OD570) was measured to obtain the amount of biofilm (BF) formed.

Setting [7] is: Test Example 3, final concentration 22 ppm.
[8] abbreviates: Test Example 3, final concentration 44 ppm.
The mark [9] stands for this setting: Test Example 3, final concentration 89 ppm.
The mark [10] stands for this setting: Test Example 3, final concentration 133 ppm.
[11] abbreviates: Test Example 3, final concentration 155 ppm.
Setting [12] is: Test Example 3, final concentration 177 ppm.
The mark [13] stands for this setting: read-out: Growth inhibition (%).

Some results are limits rather than exact numbers.

For orientation: inhibition means the change of the read-out against control, counted positive when it falls. With `CCCCc1ccc(O)cc1O` [Compound 1, 4-Butylresorcinol], the inhibition at 22 ppm in data set [1] (setting [7]) was less than 0%; in data set [2] (setting [7]), 0.5%. The results for the inhibition at 44 ppm in data set [1] (setting [8]) and in data set [2] (setting [8]) were less than 0% and 18.3%, respectively. In addition, the inhibition at 89 ppm in data set [1] (setting [9]) is less than 0%; in data set [2] (setting [9]), 4.5%. In addition, the inhibition at 133 ppm is less than 0% in data set [1] (setting [10]) and 12.9% in data set [2] (setting [10]). For the same compound, the inhibition at 155 ppm in data set [1] (setting [11]) was determined as 42.8%; in data set [2] (setting [11]), 54.9%. In addition, the inhibition at 177 ppm in data set [1] (setting [12]) is 32.7%; in data set [2] (setting [12]), 45.9%. In addition, the “amount of the biofilm formed (OD570)” value in data set [3] is reported as not above 0.4. Moreover, the “number of bacterial cells at the inlet or outlet of the reactor” value in data set [4] was “about 10^4 cells/mL”.

On to `CCc1cc(O)ccc1O` [f, Ethylquinol], for which the inhibition at 18 ppm was 2.1% in data set [1] (final concentration 18 ppm) and 18.6% in data set [2] (final concentration 18 ppm). Also, the values for the inhibition at 37 ppm in data set [1] (final concentration 37 ppm) and in data set [2] (final concentration 37 ppm) were 5.5% and 31.1%, respectively. Besides, the inhibition at 74 ppm in data set [1] (final concentration 74 ppm) was less than 0%; in data set [2] (final concentration 74 ppm), 40.6%. In addition, the figures for the inhibition at 110 ppm in data set [1] (final concentration 110 ppm) and in data set [2] (final concentration 110 ppm) were less than 0% and 50.8%, respectively. The results for the inhibition at 129 ppm in data set [1] (final concentration 129 ppm) and in data set [2] (final concentration 129 ppm) were less than 0% and 75.4%, respectively. Moreover, the inhibition at 147 ppm in data set [1] (final concentration 147 ppm) was less than 0%; in data set [2] (final concentration 147 ppm), 78.9%.

Consider `Cc1cc(O)c(C)c(C)c1O` [g, 2,3,5-Trimethylhydroquinone], for which the inhibition at 5 ppm in data set [1] (final concentration 5 ppm) was less than 0%; in data set [2] (final concentration 5 ppm) it was 45.5%. Also, the inhibition at 10 ppm was less than 0% in data set [1] (final concentration 10 ppm) and 42.2% in data set [2] (final concentration 10 ppm). The inhibition at 20 ppm in data set [1] (final concentration 20 ppm) amounted to 0.1%; in data set [2] (final concentration 20 ppm), 48%. Besides, the values for the inhibition at 30 ppm in data set [1] (final concentration 30 ppm) and in data set [2] (final concentration 30 ppm) were 65.8% and 54.7%, respectively. The inhibition at 35 ppm amounted to 67.5% in data set [1] (final concentration 35 ppm) and 93.9% in data set [2] (final concentration 35 ppm). Besides, the inhibition at 41 ppm worked out at 68.5% in data set [1] (final concentration 41 ppm) and 90.4% in data set [2] (final concentration 41 ppm).

Take `O=C(O)CN(CCN(CC(=O)O)CC(=O)O)CC(=O)O` [EDTA, Ethylenediaminetetraacetic acid]: the “dissolution in MDG (diethylene glycol monomethyl ether)” value in data set [5] is on record as “not dissolved”.

Consider `OCCOCCO` [diethylene glycol], for which the “decrease of BF formation inhibitory effect of the quinone-based compound by the organic solvent (in words)” value in data set [6] (from the results in Table 13, among the organic solvents tested) was “lowest”.

Turning to `CCCCCc1cc(O)cc(O)c1` [Compound 3, 5-Pentylresorcinol], in data set [1] (setting [13]), the inhibition at 120 ppm came out at 7.7%, the inhibition at 240 ppm is less than 0%, the inhibition at 480 ppm is less than 0% and the inhibition at 720 ppm is less than 0%. In data set [1] (setting [13]), the inhibition at 840 ppm stood at 17% and the inhibition at 960 ppm turned out to be 4.9%. Also, in data set [2], the inhibition at 120 ppm is 0.9%, the inhibition at 240 ppm was less than 0%, the inhibition at 480 ppm came out at 50.6% and the inhibition at 720 ppm came to 42.3%. Further, in data set [2], the inhibition at 840 ppm stood at 85% and the inhibition at 960 ppm came out at 86.1%.

Turning to `CCCCCCc1ccc(O)cc1O` [4-Hexylresorcinol], the values for the OD570 in data set [6] (4-Hexylresorcinol 10 ppm) and in data set [6] (4-Hexylresorcinol 20 ppm) were 1.49 and 0.10, respectively.
